We go through one compound from patent US11878972B2, “Treatment of neurological disorders” (TORQUR AG, priority 2016, dated 2024).

In data set [1] the test system is R6/2 mice (mutHTT aggregates in the striatum). The experiment in a line: Immunohistochemistry of mutHTT aggregates in striata of long-term treated R6/2 mice. It is filed as in vivo, mouse. Conditions: p.o. 11.5 weeks, Cpd. 3 65 mg/kg, Cpd. 8 16.25 mg/kg, versus vehicle controls. The text has this:
An in vivo model of Huntington's disease was used to evaluate the efficacy of Cpd. 3 and cpd. 8 in reducing mutHTT aggregate formation in the striatum. R6/2 mice are a B6CBA-Tg(HDexon1)62Gbp/3J Huntington's disease mouse model expressing exon 1 of the human huntingtin gene with an extension of 160 f 5 CAG repeats. Mice have a severe phenotype that develops between 4 and 12 weeks.
Treatment groups were established from genotype and measurement of weight, rotarod performance and litter. They were distributed equally over the four groups, each group contained 12 animals. R6/2 mice and their wt counterparts were dosed in the following treatment groups: 1. Wt, vehicle (20% SBECD in water, pH 3); 2. R6/2 vehicle (20% SBECD in water, pH 3); 3. R6/2 Cpd. 3 (65 mg/kg); 4. R6/2 Cpd.8 (16.25 mg/kg). Per oral dosing was performed for 6 days with a following drug holiday of 1 day for a total of 11.5 weeks.
To detect mutHTT aggregates, immunostaining of striata was performed. […]
Images were acquired using a Zeiss Axioplan microscope (Plan-NEOFLUAR×40/0.75 objective, AxioCam MRc) and Axiovision 4.8 software (Carl Zeiss Microscopy GmbH, Jena, Germany). Per animal three subsequent sections of the striatum were analyzed, 4 animals were analysed The EM48 positive structures were analyzed with the ImageJ built in particle analysis, with a fixed threshold for all pictures (ImageJ 1.47v; NIH, Bethesda, MD, USA). […]

A short description of a further data set: in vivo. To be noted: B57BL/6J, mouse.

Protocol for in vivo: 8, 50 mg/kg was administered to B57BL/6J mice by gavage. Animals were housed in temperature controlled rooms with free access to food and water. Test items were weighed in a glass vial and dissolved first in DMSO. Tween 80 was added subsequently and finally, the formulation was completed with HPβCD 20%. […] Blood was collected in tubes containing K3-EDTA and stored on ice until centrifugation at 3000×g (10 min. 4° C.). The plasma supernatant was separated and kept at −20° C. until being assayed. Thigh muscle and brain of mice were snap frozen. The brain and muscle samples were homogenized in PBS using the Precellys 24/Dual homogeniser.
Samples were analyzed by LC-MS. Calibration standards were prepared by spiking 20 μl of drug free blank plasma with calibration solution. […] Samples were vigorously shaken and centrifuged for 10 minutes at 6000 g and 20° C. […] An aliquot was transferred to 200 μl sampler vials and subsequently subjected to LC-MS with an injection volume of 1.5 μl.

By half-life is commonly meant the time needed for the level to fall by half in the phase considered. The term AUC denotes concentration integrated over time. Higher therefore signals high exposure. The Tmax is the time at which the peak concentration occurs. In the case of `Nc1cc(C(F)F)c(-c2nc(N3C4CCC3COC4)nc(N3C4CCC3COC4)n2)cn1` [Compound 3, 5-(4-(3-oxa-8-azabicyclo[3.2.1]octan-8-yl)-6-(3-oxa-8-azabicyclo[3.2.1]octan-8-yl)-1,3,5-triazin-2-yl)-4-(difluoromethyl)pyridin-2-amine], in data set [1], the “number of mutHTT aggregates counted in striata” value is reported as “not changed”. Further, the half-life in the data set “in vivo” (half-life) was 5 h; in the data set “in vivo” (po, 50 mg/kg, Brain t1/2) it was 5 h; in the data set “in vivo” (po, 50 mg/kg, Plasma t1/2), 5.3 h; in “in vivo” (po, 50 mg/kg, half-life in mice (estimated)) it was 4.7 to 4.8 h. The compound also displayed an AUC in “in vivo” (po, 50 mg/kg) of 20500 ng·h/mL. Further, in the data set “in vivo” (po, 50 mg/kg), the Tmax worked out at 0.5 h.
